This note sets out measurements from patent publication US20150299614A1, “IMPROVEMENTS IN OR RELATING TO ORGANIC COMPOUNDS” (Givaudan, S.A., priority 2012, published 2015).

Where only a bound is given, the exact number is not on record here.

Series [1] can be described thus: Odour perception threshold. The following applies: in air.
Series [2] in a line: Colour stability in fine fragrance (ethanol solution, indoor daylight). It is filed as physicochemical. Conditions: 1 and 0.5% wt/wt in 96% EtOH, glass vials, visual inspection. The protocol:
A solution of the test compound (compound of formula (I) specified in the Table below) was prepared in perfumery grade ethanol (96% EtOH, 4% water) at 1 and 0.5% wt/wt. The solutions were placed in 2.5 ml transparent glass vials closed with plastic lids. The vials were placed behind a window exposed to indoor daylight. The colour of the solutions was inspected visually over a 1 month period.

Series [3] is described as follows: Colour stability in bar soap. The following applies: tallow toilet soap, 2% wt/wt of a 10% wt/wt solution in DPG, 1 month at 45° C. The format is physicochemical. As to the method: The extruded 24×8 mm soap string was cut into 8 cm pieces, which were placed in a thermostated oven for 1 month at 45° C. A control sample containing no fragrance was added to the stability test series.

Series [4] concerns KeratinoSens™ cell line (Luciferase gene under the control of the ARE-element of the gene AKR1C2). The series can be described thus: KeratinoSens assay for skin sensitization (luciferase gene induction). It is filed as cell-based. The following applies: for luciferase gene induction relative to the 1.5-fold threshold: 48 h incubation, 0.98 to 2000 μM, FIG. 1; for skin sensitization rating by the KeratinoSens assay: positive if EC1.5 below 1000 μM, viability above 70%, dose-response. As to the method: The KeratinoSens™ cell line contains a stable insertion of a Luciferase gene under the control of the ARE-element of the gene AKR1C2. The optimization of this cell line and the standard method to test chemicals has been described in detail in Emter et. al. 2010 (Emter R., Ellis G., Natsch A., 2010 “Performance of a novel keratinocyte-based reporter cell line to screen skin sensitizers in vitro. Toxicol Appl Pharmacol 245, 281-290). Cells were grown for 24 h in 96-well plates. The medium was then replaced with medium containing the test chemical and the solvent Dimethylsulfoxide (DMSO) at a final level of 1%. Each compound was tested at 12 binary dilutions in the range from 0.98 to 2000 μM. In each repetition, three parallel replicate plates were run with this same set-up and a fourth parallel plate was prepared for cytotoxicity determination using an MTT assay. Cells were incubated for 48 h with the test agents, and then luciferase activity and cytotoxicity were determined. This full procedure was repeated at least three times for each chemical. For each chemical in each repetition and at each concentration, the gene induction compared to DMSO controls and the wells with statistically significant induction over the threshold of 1.5 (i.e. 50% enhanced gene activity) were determined. Furthermore the maximal fold-induction (Imax) and the EC1.5 value (concentration in μM for induction above the threshold) were calculated. Chemicals are rated as positive (i.e. likely skin-sensitizers) in the assay if the following three criteria are fulfilled (i) The EC1.5 value is below 1000 μM in all three repetitions or in at least 2 repetitions, (ii) at the lowest concentration with a gene induction above 1.5 fold (i.e. at the EC 1.5 determining value), the cellular viability is above 70% and (iii) there is an apparent overall dose-response for luciferase induction, which is similar between the repetitions.

A further series has as its system KeratinoSens™ cell line. The series can be described thus: Cytotoxicity determination using an MTT assay in the KeratinoSens assay. The format is cell-based. Conditions: 48 h, oxime: no significant cytotoxicity up to the value, Isoeugenol: cytotoxic above the value. The protocol:
The KeratinoSens™ cell line contains a stable insertion of a Luciferase gene under the control of the ARE-element of the gene AKR1C2. The optimization of this cell line and the standard method to test chemicals has been described in detail in Emter et. al. 2010 (Emter R., Ellis G., Natsch A., 2010 “Performance of a novel keratinocyte-based reporter cell line to screen skin sensitizers in vitro. Toxicol Appl Pharmacol 245, 281-290). Cells were grown for 24 h in 96-well plates. The medium was then replaced with medium containing the test chemical and the solvent Dimethylsulfoxide (DMSO) at a final level of 1%. Each compound was tested at 12 binary dilutions in the range from 0.98 to 2000 μM. In each repetition, three parallel replicate plates were run with this same set-up and a fourth parallel plate was prepared for cytotoxicity determination using an MTT assay. Cells were incubated for 48 h with the test agents, and then luciferase activity and cytotoxicity were determined. […] For each chemical in each repetition and at each concentration, the gene induction compared to DMSO controls and the wells with statistically significant induction over the threshold of 1.5 (i.e. 50% enhanced gene activity) were determined. Furthermore the maximal fold-induction (Imax) and the EC1.5 value (concentration in μM for induction above the threshold) were calculated. […]

The nature of series [5]: Colour stability in colourless consumer base. It is filed as physicochemical. The following applies: dosed in a colourless consumer base at 0.02%, storage 4 weeks at 45 ° C. The protocol:
By the term “colour stable” is meant that when dosed in a colourless consumer base at 0.02% and held under storage for 4 weeks at 45 ° C., bases containing the compounds of formula (I) remain colourless upon visual inspection. On the other hand, bases containing iso-eugenol and iso-eugenol “[…]” such as vanillin at the same concentration were discoloured, variously appearing to have yellowish, orange, […] or brown hues.

`CC(C)c1cccc(C(C)CC=O)c1` (centres unmarked) [3-(3-isopropylphenyl)butanal] yielded a perception threshold in series [1] of 0.07 ng/L.

Consider `CC/C=C\CC/C=C/C=N/OC` [(1E,2E,6Z)-nona-2,6-dienal O-methyl oxime], for which the perception threshold in series [1] is 2.94 ng/L.

In turn, `CC/C=C\CC/C=C/C=O` [(2E,6Z)-nona-2,6-dienal] had a perception threshold in series [1] of 0.06 ng/L.

`CCOc1cc(C=NOC)ccc1O` [Cpd I (R1 = Et, R2 = Me), 3-ethoxy-4-hydroxybenzaldehyde O-methyl oxime]: in series [2], the “Colour of ethanol solution after 1 month” value is reported as “colourless”. Besides, the “Colour of ethanol solution after 1 month” value in series [2] (listed as compound I) is “would have passed the requirements for colourless fine fragrance”. In addition, the “colour of soap after one month” value in series [3] is on record as “remained as control”. Also, in series [4], the “luciferase gene induction relative to the 1.5-fold threshold” value was “did not induce luciferase activity above the 1.5-fold threshold” and the “skin sensitization rating by the KeratinoSens assay” value is reported as “non-sensitizing”. Besides, the “concentration above which cytotoxic (cell viability)” value with KeratinoSens™ cell line was greater than 1000 µM.

In series [1], `CO/N=C/CC(C)c1cccc(C(C)C)c1` (centres unmarked) [E)-3-(3-isopropylphenyl)butanal O-methyl oxime] showed a perception threshold of 22.4 ng/L.

For the compound `CCOc1cc(C=O)ccc1O` [Ethyl Vanillin], the results for the “Colour of ethanol solution after 1 month” value in series [2] and in series [2] (listed as ethyl vanillin) were “yellow” and “unacceptable yellow colour”, respectively. In addition, in series [3], the “colour of soap after one month” value is reported as “chocolate brown”.

For `CC=Cc1ccc(O)c(OC)c1` [Isoeugenol], in series [5], the “colour of consumer base upon visual inspection” value is “discoloured”. Further, in series [4], the “luciferase gene induction relative to the 1.5-fold threshold” value is on record as “clearly induces the gene already in the lower micromolar range” and the “skin sensitization rating by the KeratinoSens assay” value is given as “sensitizing”. Also, the “concentration above which cytotoxic (cell viability)” value with KeratinoSens™ cell line is listed as “above 500 micromolar”.

`COc1cc(C=O)ccc1O` [Vanillin]: the “Colour of ethanol solution after 1 month” value in series [2] was “yellow”; in series [2] (listed as vanillin) it was “unacceptable yellow colour”. For the same compound, the “colour of consumer base upon visual inspection” value in series [5] is reported as “discoloured”.
